Where only a bound is given, the exact number is not on record here.

System in one series: not listed separately
Nature of the series: Stability of compounds in solution, 1:1 MeOH:H2O. The series is classed as physicochemical. As to conditions: ultra performance liquid chromatography (FIG. 4).
In the case of `O=C(NC1CN(C(=O)O)C1)[C@@H]1NC2(CCCCC2)[C@@]2(C(=O)Nc3cc(Cl)ccc32)[C@H]1c1cccc(Cl)c1F` [compound 39], the Stability in solution result is recorded as “more stable than MI-77301”.

System in the next series: not listed separately
Description: Stability of compounds in solution, 1:1 CH3CN:H2O. The series is classed as physicochemical. Conditions: ultra performance liquid chromatography (FIG. 5).
Regarding `O=C(NC1CN(C(=O)O)C1)[C@@H]1NC2(CCCCC2)[C@@]2(C(=O)Nc3cc(Cl)ccc32)[C@H]1c1cccc(Cl)c1F` [compound 39], the Stability in solution result is given as “more stable than MI-77301”.

The target of another series is recombinant human His-tagged MDM2 protein (residues 1-118) (Homo sapiens (Human), UniProt Q00987). Nature of the series: Fluorescence-polarization MDM2 competitive binding assay. As to conditions: FP competition with PMDM6-F peptide (1 nM), MDM2 10 nM, 3 h incubation; read-out: Binding affinities to MDM2 (1-118) IC50. As to the method: The binding affinity of the MDM2 inhibitors disclosed herein was determined using a fluorescence polarization-based (FP-based) binding assay using a recombinant human His-tagged MDM2 protein (residues 1-118) and a fluorescently tagged p53-based peptide.
(García-Echeverria et al., J. Med. Chem. 43: 3205-3208 (2000)). […] The assay was performed in the buffer: 100 mM potassium phosphate, pH 7.5; 100 μg/mL bovine gamma globulin; 0.02% sodium azide, 0.01% Triton X-100) and the polarization values were measured after 3 h of incubation using an ULTRA READER (Tecan U.S. Inc., Research Triangle Park, N.C.). […] The Kd value was calculated using the equation: Kd value=IC50−L0/2.
100 μg/mL bovine gamma globulin; 0.02% sodium azide, 0.01% Triton X-100), were added in a Dynex 96-well, black, round-bottom plate to produce a final volume of 125 μL. […] The polarization values were measured after 3 h of incubation. […] Curve fitting was performed using […] PRISM software (GraphPad Software, Inc., San Diego, Calif.).
`O=C(NCCN1CCOCC1)[C@@H]1NC2(CCCCC2)[C@@]2(C(=O)Nc3cc(Cl)ccc32)[C@H]1c1cccc(Cl)c1F` [Compound 15]: the IC50 is < 100 nM.

In the case of `CC1(O)CC(NC(=O)[C@@H]2NC3(CCCCC3)[C@@]3(C(=O)Nc4cc(Cl)ccc43)[C@H]2c2cccc(Cl)c2F)C1` (some centres unmarked) [Compound 33], the IC50 is < 100 nM.

With `O=C(NCCN1CCOCC1)[C@@H]1NC2(CCC(F)(F)CC2)[C@]2(C(=O)Nc3cc(Cl)ccc32)[C@H]1c1cccc(Cl)c1F` [Compound 8], the IC50 is < 5000 nM.

`O=C(NCCN1CCOCC1)[C@@H]1NC2(CCOCC2)[C@@]2(C(=O)Nc3cc(Cl)ccc32)[C@H]1c1cccc(Cl)c1F` [Compound 12]: the IC50 is < 5000 nM.

Consider `CS(=O)(=O)CCN1CCC(NC(=O)[C@@H]2NC3(CCCCC3)[C@@]3(C(=O)Nc4cc(Cl)ccc43)[C@H]2c2cccc(Cl)c2F)CC1` [Compound 25], for which the IC50 was < 100 nM.

Turning to `O=C(NCCN1CCOCC1)[C@@H]1NC2(CCC(F)(F)CC2)[C@@]2(C(=O)Nc3cc(Cl)ccc32)[C@H]1c1cccc(Cl)c1F` [Compound 7], the IC50 is < 1000 nM.

Consider `O=C(NC1CCC(O)CC1)[C@@H]1NC2(CCCCC2)[C@@]2(C(=O)Nc3cc(Cl)ccc32)[C@H]1c1cccc(Cl)c1F` (some centres unmarked) [Compound 41], for which the concentration for half-maximal inhibition (IC50) was < 100 nM.

With `O=C(NCc1nnn[nH]1)[C@@H]1NC2(CCCCC2)[C@@]2(C(=O)Nc3cc(Cl)ccc32)[C@H]1c1cccc(Cl)c1F` [Compound 32], the IC50 is < 100 nM.

As to `CCC1(CC)N[C@@H](C(=O)NCCN2CCOCC2)[C@H](c2cccc(Cl)c2F)[C@]12C(=O)Nc1cc(Cl)ccc12` [Compound 6], the IC50 is < 1000 nM.

`O=C(NC1CCC(O)CC1)[C@@H]1NC[C@@]2(C(=O)Nc3cc(Cl)ccc32)[C@H]1c1cccc(Cl)c1F` (some centres unmarked) [Compound 5]: the IC50 was > 10000 nM.

Consider `CS(=O)(=O)CCNC(=O)[C@@H]1NC2(CCCCC2)[C@@]2(C(=O)Nc3cc(Cl)ccc32)[C@H]1c1cccc(Cl)c1F` [Compound 20], for which the IC50 was < 100 nM.

Take `O=C(O)[C@@H]1NC2(CCCCC2)[C@@]2(C(=O)Nc3cc(Cl)ccc32)[C@H]1c1cccc(Cl)c1F` [Compound 26]: the IC50 was < 500 nM.

For `CNC(=O)[C@@H]1NC2(CCCCC2)[C@@]2(C(=O)Nc3cc(Cl)ccc32)[C@H]1c1cc(Cl)ccc1OC(C)(C)C(=O)O` [Compound 34], the IC50 was > 10000 nM.

For the compound `O=C(NC1CN(C(=O)O)C1)[C@@H]1NC2(CCCCC2)[C@@]2(C(=O)Nc3cc(Cl)ccc32)[C@H]1c1cccc(Cl)c1F` [Compound 39], the IC50 was < 100 nM.

As to `CC1(C)N[C@@H](C(=O)NC2CCC(O)CC2)[C@H](c2cccc(Cl)c2F)[C@]12C(=O)Nc1cc(Cl)ccc12` (some centres unmarked) [Compound 1], the concentration for half-maximal inhibition (IC50) came out at 201 nM.

On to `CNC(=O)[C@@H]1NC2(CCCCC2)[C@@]2(C(=O)Nc3cc(Cl)ccc32)[C@H]1c1cc(Cl)cnc1OC(C)(C)C(=O)O` [Compound 35], for which the IC50 is > 10000 nM.

The series is the same for the next values; noted with them: FP competition with PMDM6-F peptide; read-out: Binding affinities to MDM2 (1-118) Ki.
Take `CC1(C)N[C@@H](C(=O)NC2CCC(O)CC2)[C@H](c2cccc(Cl)c2F)[C@]12C(=O)Nc1cc(Cl)ccc12` (some centres unmarked) [Compound 1]: the Ki stood at 26.4 nM.

System in the next series: not listed separately
Description: Stability in 1:1 MeOH:H2O with 10% TFA. Conditions: 1:1 MeOH:H2O with 10% TFA added, UPLC (FIG. 6). The series is classed as physicochemical. As to the method:
The stability of Compound Example Nos. 10 and 11 were determined in 1:1 MeOH:H2O with 10% TFA added using ultra performance liquid chromatography (FIG. 6).
As for `O=C(NC1CCC(O)CC1)[C@@H]1NC2(CCOCC2)[C@]2(C(=O)Nc3cc(Cl)ccc32)[C@H]1c1cccc(Cl)c1F` (some centres unmarked) [compound 10], the “Stability in solution (isomer conversion)” value was “converted into Compound Example No. 11”.

In general, IC50 refers to the point on the concentration scale where inhibition reaches its midpoint. What is called Ki is the dissociation constant of the complex between target and ligand, obtained from inhibition or displacement.

The values are drawn from patent publication US8629141B2, “Spiro-oxindole MDM2 antagonists” (The Regents of the University of Michigan, priority 2011, dated 2014).
